Assay results taken from patent publication US20260266848A1, “COMPOSITIONS AND METHODS FOR DIAGNOSING AND TREATING DYSTONIA” (Duke University, priority 2023, published 2026).

Test system: DYT-TOR1A MEF EVs
Experiment: Quantitative LC-MS/MS proteomics of EVs from drug-treated DYT-TOR1A MEF cultures (ritonavir, salubrinal)
Type: cell-based, mouse

O=C(/C=C/c1ccccc1)NC(NC(=S)Nc1cccc2cccnc12)C(Cl)(Cl)Cl (stereo not drawn) [salubrinal]
Acaa1a (ACAA1) EV abundance Cohen's d (DYT + Sal/DYT, 20 μM, 24 h): −0.1738
Ano6 (ANO6) EV abundance Cohen's d (DYT + Sal/DYT, 20 μM, 24 h): 0.1593
Ap1b1 (AP1B1) EV abundance Cohen's d (DYT + Sal/DYT, 20 μM, 24 h): −0.5479
Ar18b (ARL8B) EV abundance Cohen's d (DYT + Sal/DYT, 20 μM, 24 h): −0.5773
Bzw2 (BZW2) EV abundance Cohen's d (DYT + Sal/DYT, 20 μM, 24 h): 0.2815
Cryab (CRYAB) EV abundance Cohen's d (DYT + Sal/DYT, 20 μM, 24 h): 1.101
DIst (DLST) EV abundance Cohen's d (DYT + Sal/DYT, 20 μM, 24 h): −0.973
Ehd4 (EHD4) EV abundance Cohen's d (DYT + Sal/DYT, 20 μM, 24 h): −0.4717
Flna (FLNA) EV abundance Cohen's d (DYT + Sal/DYT, 20 μM, 24 h): 0.4828
Fscn1 (FSCN1) EV abundance Cohen's d (DYT + Sal/DYT, 20 μM, 24 h): 0.7138
Gart (GART) EV abundance Cohen's d (DYT + Sal/DYT, 20 μM, 24 h): 0.6261
Hist1h1b (H1-5) EV abundance Cohen's d (DYT + Sal/DYT, 20 μM, 24 h): 0.4792
Hnrnpc (HNRNPC) EV abundance Cohen's d (DYT + Sal/DYT, 20 μM, 24 h): −0.5111
Ipo9 (IPO9) EV abundance Cohen's d (DYT + Sal/DYT, 20 μM, 24 h): 0.1652
Jam3 (JAM3) EV abundance Cohen's d (DYT + Sal/DYT, 20 μM, 24 h): −0.5387
Lipg (LIPG) EV abundance Cohen's d (DYT + Sal/DYT, 20 μM, 24 h): 0.6163
Lrrc59 (LRRC59) EV abundance Cohen's d (DYT + Sal/DYT, 20 μM, 24 h): 0.4615
Mapk3 (MAPK3) EV abundance Cohen's d (DYT + Sal/DYT, 20 μM, 24 h): −0.3187
Mars (MARS1) EV abundance Cohen's d (DYT + Sal/DYT, 20 μM, 24 h): −0.2456
Mrc2 (MRC2) EV abundance Cohen's d (DYT + Sal/DYT, 20 μM, 24 h): 0.3301
Myh9 (MYH9) EV abundance Cohen's d (DYT + Sal/DYT, 20 μM, 24 h): −0.2884
Ndnf (NDNF) EV abundance Cohen's d (DYT + Sal/DYT, 20 μM, 24 h): −0.4227
Pcmt1 (PCMT1) EV abundance Cohen's d (DYT + Sal/DYT, 20 μM, 24 h): −0.2746
Pi4ka (PI4KA) EV abundance Cohen's d (DYT + Sal/DYT, 20 μM, 24 h): 0.7656
Pitpnb (PITPNB) EV abundance Cohen's d (DYT + Sal/DYT, 20 μM, 24 h): 0.6644
Prpsap2 (PRPSAP2) EV abundance Cohen's d (DYT + Sal/DYT, 20 μM, 24 h): −1.257
Psmc5 (PSMC5) EV abundance Cohen's d (DYT + Sal/DYT, 20 μM, 24 h): 1.22
Psmd12 (PSMD12) EV abundance Cohen's d (DYT + Sal/DYT, 20 μM, 24 h): 1.234
Psme4 (PSME4) EV abundance Cohen's d (DYT + Sal/DYT, 20 μM, 24 h): −0.3917
Ptma (PTMA) EV abundance Cohen's d (DYT + Sal/DYT, 20 μM, 24 h): 0.9729
Rap2b (RAP2B) EV abundance Cohen's d (DYT + Sal/DYT, 20 μM, 24 h): −0.249
Rbm3 (RBM3) EV abundance Cohen's d (DYT + Sal/DYT, 20 μM, 24 h): 0.2607
Rhoa (RHOA) EV abundance Cohen's d (DYT + Sal/DYT, 20 μM, 24 h): −0.6572
Rpl10 (RPL10) EV abundance Cohen's d (DYT + Sal/DYT, 20 μM, 24 h): −0.3597
Rpl13a (RPL13A) EV abundance Cohen's d (DYT + Sal/DYT, 20 μM, 24 h): −0.4797
Rps13 (RPS13) EV abundance Cohen's d (DYT + Sal/DYT, 20 μM, 24 h): −0.1409
Sec31a (SEC31A) EV abundance Cohen's d (DYT + Sal/DYT, 20 μM, 24 h): −0.2355
Slc2a1 (SLC2A1) EV abundance Cohen's d (DYT + Sal/DYT, 20 μM, 24 h): −0.3172
Stom (STOM) EV abundance Cohen's d (DYT + Sal/DYT, 20 μM, 24 h): −0.4048
Tardbp (TARDBP) EV abundance Cohen's d (DYT + Sal/DYT, 20 μM, 24 h): 0.4522
Tgfb2 (TGFB2) EV abundance Cohen's d (DYT + Sal/DYT, 20 μM, 24 h): −0.3293
Tln1 (TLN1) EV abundance Cohen's d (DYT + Sal/DYT, 20 μM, 24 h): 0.5665
Tln2 (TLN2) EV abundance Cohen's d (DYT + Sal/DYT, 20 μM, 24 h): 0.5488
Tubb1 (TUBB1) EV abundance Cohen's d (DYT + Sal/DYT, 20 μM, 24 h): 0.246
Usp7 (USP7) EV abundance Cohen's d (DYT + Sal/DYT, 20 μM, 24 h): 1.229
Wdr26 (WDR26) EV abundance Cohen's d (DYT + Sal/DYT, 20 μM, 24 h): −0.1895
Zyx (ZYX) EV abundance Cohen's d (DYT + Sal/DYT, 20 μM, 24 h): −0.5814
Pearson r between ritonavir and salubrinal effects on putative DYT-TOR1A biomarker proteins (DYT-TOR1A MEF EVs, 20 μM each, 24 h): 0.47
Acaa1a (ACAA1) EV abundance Cohen's d (DYT/DYT + Sal, 20 μM, 24 h): −0.1738
Ano6 (ANO6) EV abundance Cohen's d (DYT/DYT + Sal, 20 μM, 24 h): 0.1593
Ap1b1 (AP1B1) EV abundance Cohen's d (DYT/DYT + Sal, 20 μM, 24 h): −0.5479
Arl8b (ARL8B) EV abundance Cohen's d (DYT/DYT + Sal, 20 μM, 24 h): −0.5773
Bzw2 (BZW2) EV abundance Cohen's d (DYT/DYT + Sal, 20 μM, 24 h): 0.2815
Cryab (CRYAB) EV abundance Cohen's d (DYT/DYT + Sal, 20 μM, 24 h): 1.101
DIst (DLST) EV abundance Cohen's d (DYT/DYT + Sal, 20 μM, 24 h): −0.973
Ehd4 (EHD4) EV abundance Cohen's d (DYT/DYT + Sal, 20 μM, 24 h): −0.4717
Flna (FLNA) EV abundance Cohen's d (DYT/DYT + Sal, 20 μM, 24 h): 0.4828
Fscn1 (FSCN1) EV abundance Cohen's d (DYT/DYT + Sal, 20 μM, 24 h): 0.7138
Gart (GART) EV abundance Cohen's d (DYT/DYT + Sal, 20 μM, 24 h): 0.6261
Hist1h1b (H1-5) EV abundance Cohen's d (DYT/DYT + Sal, 20 μM, 24 h): 0.4792
Hnrnpc (HNRNPC) EV abundance Cohen's d (DYT/DYT + Sal, 20 μM, 24 h): −0.5111
Ipo9 (IPO9) EV abundance Cohen's d (DYT/DYT + Sal, 20 μM, 24 h): 0.1652
Jam3 (JAM3) EV abundance Cohen's d (DYT/DYT + Sal, 20 μM, 24 h): −0.5387
Lipg (LIPG) EV abundance Cohen's d (DYT/DYT + Sal, 20 μM, 24 h): 0.6163
Lrrc59 (LRRC59) EV abundance Cohen's d (DYT/DYT + Sal, 20 μM, 24 h): 0.4615
Mapk3 (MAPK3) EV abundance Cohen's d (DYT/DYT + Sal, 20 μM, 24 h): −0.3187
Mars (MARS1) EV abundance Cohen's d (DYT/DYT + Sal, 20 μM, 24 h): −0.2456
Mrc2 (MRC2) EV abundance Cohen's d (DYT/DYT + Sal, 20 μM, 24 h): 0.3301
Myh9 (MYH9) EV abundance Cohen's d (DYT/DYT + Sal, 20 μM, 24 h): −0.2884
Ndnf (NDNF) EV abundance Cohen's d (DYT/DYT + Sal, 20 μM, 24 h): −0.4227
Pcmt1 (PCMT1) EV abundance Cohen's d (DYT/DYT + Sal, 20 μM, 24 h): −0.2746
Pi4ka (PI4KA) EV abundance Cohen's d (DYT/DYT + Sal, 20 μM, 24 h): 0.7656
Pitpnb (PITPNB) EV abundance Cohen's d (DYT/DYT + Sal, 20 μM, 24 h): 0.6644
Prpsap2 (PRPSAP2) EV abundance Cohen's d (DYT/DYT + Sal, 20 μM, 24 h): −1.257
Psmc5 (PSMC5) EV abundance Cohen's d (DYT/DYT + Sal, 20 μM, 24 h): 1.22
Psmd12 (PSMD12) EV abundance Cohen's d (DYT/DYT + Sal, 20 μM, 24 h): 1.234
Psme4 (PSME4) EV abundance Cohen's d (DYT/DYT + Sal, 20 μM, 24 h): −0.3917
Ptma (PTMA) EV abundance Cohen's d (DYT/DYT + Sal, 20 μM, 24 h): 0.9729
Rap2b (RAP2B) EV abundance Cohen's d (DYT/DYT + Sal, 20 μM, 24 h): −0.249
Rbm3 (RBM3) EV abundance Cohen's d (DYT/DYT + Sal, 20 μM, 24 h): 0.2607
Rhoa (RHOA) EV abundance Cohen's d (DYT/DYT + Sal, 20 μM, 24 h): −0.6572
Rpl10 (RPL10) EV abundance Cohen's d (DYT/DYT + Sal, 20 μM, 24 h): −0.3597
Rpl13a (RPL13A) EV abundance Cohen's d (DYT/DYT + Sal, 20 μM, 24 h): −0.4797
Rps13 (RPS13) EV abundance Cohen's d (DYT/DYT + Sal, 20 μM, 24 h): −0.1409
Sec31a (SEC31A) EV abundance Cohen's d (DYT/DYT + Sal, 20 μM, 24 h): −0.2355
Slc2a1 (SLC2A1) EV abundance Cohen's d (DYT/DYT + Sal, 20 μM, 24 h): −0.3172
Stom (STOM) EV abundance Cohen's d (DYT/DYT + Sal, 20 μM, 24 h): −0.4048
Tardbp (TARDBP) EV abundance Cohen's d (DYT/DYT + Sal, 20 μM, 24 h): 0.4522
Tgfb2 (TGFB2) EV abundance Cohen's d (DYT/DYT + Sal, 20 μM, 24 h): −0.3293
Tln1 (TLN1) EV abundance Cohen's d (DYT/DYT + Sal, 20 μM, 24 h): 0.5665
Tln2 (TLN2) EV abundance Cohen's d (DYT/DYT + Sal, 20 μM, 24 h): 0.5488
Tubb1 (TUBB1) EV abundance Cohen's d (DYT/DYT + Sal, 20 μM, 24 h): 0.246
Usp7 (USP7) EV abundance Cohen's d (DYT/DYT + Sal, 20 μM, 24 h): 1.229
Wdr26 (WDR26) EV abundance Cohen's d (DYT/DYT + Sal, 20 μM, 24 h): −0.1895
Zyx (ZYX) EV abundance Cohen's d (DYT/DYT + Sal, 20 μM, 24 h): −0.5814
proteins reduced in both mouse and human EVs whose abundance is modulated toward correction in DYT1 cells (and toward DYT1-like by ISRIB in WT cells) (salubrinal): 4 of the 7
